# In patent US20220288004A1, “TREATMENT AND PREVENTION OF AGING RELATED-DISEASE AND/OR AGING BY THE INHIBITION OF SPHINGOLIPIDS” (ECOLE POLYTECHNIQUE FEDERALE DE LAUSANNE (EPFL), priority 2019, published 2022):
# Test system: sphingolipid de novo synthesis pathway
# Experiment: Measurement of sphingolipids in tissues of aged mice treated with myriocin
# Format: in vivo, mouse
# Method: To examine whether a causal relationship could underlie the correlation between SphPC1 and muscle mass and function, it was tested whether inhibition of sphingolipid de novo biosynthesis pathway could protect against age-related muscle dysfunction. Aged (18-month-old) C57Bl/6JRj mice were treated for 5 months on chow diet with myriocin, a specific inhibitor of SPT, the first and rate-limiting enzyme of the sphingolipid de novo synthesis pathway, and whose expression in skeletal muscle was negatively correlated with muscular fitness in BXDs.
# Animals. Young (2-month-old) and aged (18-month-old) C57Bl/6JRj mice were purchased from Janvier Labs. EchoMRI measuring the fat and lean body mass, were measured before and after the treatment. The dose of myriocin was 0.4 mg/kg/3 times a week. Myriocin (Enzo Life Sciences, Farmingdale, N.Y.) was first dissolved in DMSO which was then mixed with PBS so that each mouse received 1.5 μL DMSO per injection. Animals were fed on a standard chow diet. All animals were housed in micro-isolator cages in a room illuminated from 7:00 AM to 7:00 PM with ad libitum access to diet and water. All the animal experiments are authorized by animal license 2890.1 and 3341 in Canton of Vaud, Switzerland.
# Measurement of sphingolipids. Plasma (100 μL) and weighed tissue samples (20-60 mg) were transferred to 2 ml Safe-Lock PP-tubes, and extracted. In brief, samples were homogenized using two 6 mm steal beads on a Mixer Mill (Retsch, Haan, GER; 2×10 sec, frequency 30/s) in 700 μL MTBE/MeOH (3/1, v/v) containing 500 μmol butylated hydroxytoluene, 1% acetic acid, and 200 μmol of internal standards (IS, d18:1/17:0 ceramide, d18:1/17:0 sphingomyelin, Avanti Polar Lipids, Alabaster, Ala., USA) per sample. Total lipid extraction was performed under constant shaking for 30 min at RT. After addition of 140 μL dH2O and further incubation for 30 min on RT, samples were centrifuged at 1,000×g for 15 min to establish phase separation. 500 μL of the upper, organic phase were collected and dried under a stream of nitrogen. Lipids were resolved in 700 μL 2-propanol/methanol/water (7/2.5/1, v/v/v) for UPLC-MS analysis. Remaining tissues were dried, solubilized in NaOH (0.3 N) at 65° C. for 4 h and the protein content was determined using Pierce™ BCA reagent (Thermo Fisher Scientific, Waltham, Mass., USA) and BSA as standard.
# Chromatographic separation was modified after Knittelfelder et al. using an ACQUITY-UPLC system (Waters Corporation), equipped with a Luna omega C18 column (2.1×50 mm, 1.6 μm; Phenomenex) starting a 20 min linear gradient with 80% solvent A (MeOH/H2O, 1/1, v/v; 10 mM ammonium acetate, 0.1% formic acid, 8 μM phosphoric acid). The column compartment was kept on 50° C. A EVOQ Elite™ triple quadrupole mass spectrometer (Bruker) equipped with an ESI source was used for detection of lipids in positive ionization mode. Lipid species were analyzed by selected reaction monitoring (ceramide, [M+H]+ to m/z 264.3, 22 eV, 60 ms; sphingomyelin, [M+H]+ to m/z 184.1, 20 eV, 40 ms; resolution 0.7 Q1/Q3). Data acquisition was done by MS Workstation (Bruker). Data were normalized for recovery, extraction-, and ionization efficacy by calculating analyte/IS ratios (AU) and expressed as AU/g tissue or AU/mL plasma.
# Measurement of deoxysphingolipids. […] An aliquot (50 μL) of homogenate was dried under air and resuspended in RIPA buffer for protein quantification using BCA assay (BCA Protein Assay, Lambda, Biotech Inc., US). […]
# [1] = quadriceps of aged myriocin treated mice
smiles,measurement,setting,value
"CCCCCCC(=O)CCCCCCC=CCC(O)C(O)C(N)(CO)C(=O)O (centres unmarked) [myriocin, 2-Amino-3,4-dihydroxy-2-(hydroxymethyl)-14-oxoicos-6-enoic acid]",total ceramide contents of skeletal muscle,"aged (18-month-old) C57Bl/6JRj mice, myriocin 0.4 mg/kg i.p. 3 times per week, 5 months, vs DMSO",reduced
same,skeletal muscle deoxysphingolipid contents,"aged mice, myriocin 0.4 mg/kg i.p. 3 times per week, 5 months, smaller effect than on canonical sphingolipids",reduced
same,sphinganine (SA) level in skeletal muscle,[1],lower levels
same,sphingosine (SO) level in skeletal muscle,[1],lower levels
same,individual ceramide species in skeletal muscle,"quadriceps, aged mice, myriocin 0.4 mg/kg i.p. 3 times per week, 5 months",reduced
